{"source": "paper PMC9293466", "about": "(Chembiochem, 2021)", "biological_target": "T1, Gc4EO (Gulosibacter chungangensis, UniProt A0A7J5BGR1)", "T1 sequence (A0A7J5BGR1 1-529)": "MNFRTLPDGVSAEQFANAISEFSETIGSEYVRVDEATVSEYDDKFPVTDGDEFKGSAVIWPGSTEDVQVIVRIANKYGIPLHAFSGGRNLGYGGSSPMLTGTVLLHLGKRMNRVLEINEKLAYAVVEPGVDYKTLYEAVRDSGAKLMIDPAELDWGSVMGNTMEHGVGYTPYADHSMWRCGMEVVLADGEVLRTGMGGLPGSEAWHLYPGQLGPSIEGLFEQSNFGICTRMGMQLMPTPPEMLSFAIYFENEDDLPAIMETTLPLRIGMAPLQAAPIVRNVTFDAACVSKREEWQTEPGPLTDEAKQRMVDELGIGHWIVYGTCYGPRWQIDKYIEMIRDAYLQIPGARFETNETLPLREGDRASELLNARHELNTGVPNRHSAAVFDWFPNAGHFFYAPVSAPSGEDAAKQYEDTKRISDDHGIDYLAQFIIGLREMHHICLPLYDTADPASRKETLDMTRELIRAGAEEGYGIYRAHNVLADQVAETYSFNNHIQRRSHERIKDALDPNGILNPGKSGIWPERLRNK", "assay": "X-ray crystal structure, […] Å", "format": "binding", "conditions": "covalent; C8M of FAD to His395; pH 8.0 crystals"}
{"molecule": "Cc1cc2nc3c(=O)[nH]c(=O)nc-3n(C[C@H](O)[C@H](O)[C@H](O)COP(=O)(O)OP(=O)(O)OC[C@H]3O[C@@H](n4cnc5c(N)ncnc54)[C@H](O)[C@@H]3O)c2cc1C", "note": "[FAD]", "values": [{"measurement": "X-ray crystal structure, 1.7 Å", "value": "showing the covalent bond between the C8 M of FAD and His395"}]}
